# Results: patent US10125118B2, “Heteroaryl compounds and their use as therapeutic drugs” (Dong-A Socio Holdings Co., Ltd., priority 2015, dated 2018)
# Biological target: human c-MER catalytic domain (Homo sapiens (Human), UniProt Q12866)
# Test: LanthaScreen TR-FRET kinase assay, c-MER
# Conditions: read-out: Mer TK inhibition (IC50); Biochemical IC50, TR-FRET, 10 uM ATP
# Sequence of human c-MER catalytic domain (Q12866 587-858): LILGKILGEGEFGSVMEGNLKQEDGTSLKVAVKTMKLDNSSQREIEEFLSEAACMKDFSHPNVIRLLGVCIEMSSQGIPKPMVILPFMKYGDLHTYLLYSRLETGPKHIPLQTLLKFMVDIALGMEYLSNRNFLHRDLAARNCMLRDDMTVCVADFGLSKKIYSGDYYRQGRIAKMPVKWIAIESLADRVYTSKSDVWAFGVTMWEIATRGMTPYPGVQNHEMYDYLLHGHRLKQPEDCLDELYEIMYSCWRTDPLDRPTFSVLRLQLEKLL
row,Structure (SMILES),IC50 [nM]
1,"C[C@H](COCc1ccc(Cl)c(Cl)c1)NC(=O)c1cc(-c2cnn(C)c2)cnc1N [Example 104, (R)-2-amino-N-(1-((3,4-dichlorobenzyl)oxy)propan-2-yl)-5-(1-methyl-1H-pyrazol-4-yl)nicotinamide]",> 1000
2,"COc1cccc(COC[C@@H](C)NC(=O)c2cc(-c3cnn(C)c3)cnc2N)c1 [Example 106, (R)-2-amino-N-(1-((3-methoxybenzyl)oxy)propan-2-yl)-5-(1-methyl-1H-pyrazol-4-yl)nicotinamide]",> 1000
3,"COc1cccc(CO[C@@H](C)CNC(=O)c2cc(-c3cnn(C)c3)cnc2N)c1 [Example 107, (S)-2-amino-N-(2-((3-methoxybenzyl)oxy)propyl)-5-(1-methyl-1H-pyrazol-4-yl)nicotinamide]",> 1000
4,"CC[C@H](COCc1ccccc1)NC(=O)c1cc(-c2cnn(C)c2)cnc1N [Example 108, (R)-2-amino-N-(1-(benzyloxy)butan-2-yl)-5-(1-methyl-1H-pyrazol-4-yl)nicotinamide]",> 1000
5,"CC(C)[C@@H](COCc1ccccc1)NC(=O)c1cc(-c2cnn(C)c2)cnc1N [Example 109, (S)-2-amino-N-(1-(benzyloxy)-3-methylbutan-2-yl)-5-(1-methyl-1H-pyrazol-4-yl)nicotinamide]",> 1000
6,"CC(C)[C@H](COCc1ccccc1)NC(=O)c1cc(-c2cnn(C)c2)cnc1N [Example 110, (R)-2-amino-N-(1-(benzyloxy)-3-methylbutan-2-yl)-5-(1-methyl-1H-pyrazol-4-yl)nicotinamide]",> 1000
7,"CC(C)C[C@@H](COCc1ccccc1)NC(=O)c1cc(-c2cnn(C)c2)cnc1N [Example 111, (S)-2-amino-N-(1-(benzyloxy)-4-methylpentan-2-yl)-5-(1-methyl-1H-pyrazol-4-yl)nicotinamide]",> 1000
8,"CC(C)C[C@H](COCc1ccccc1)NC(=O)c1cc(-c2cnn(C)c2)cnc1N [Example 112, (R)-2-amino-N-(1-(benzyloxy)-4-methylpentan-2-yl)-5-(1-methyl-1H-pyrazol-4-yl)nicotinamide]",> 1000
9,"Cn1cc(-c2cnc(N)c(C(=O)N[C@@H](COCc3ccccc3)C3CCCCC3)c2)cn1 [Example 113, (R)-2-amino-N-(2-(benzyloxy)-1-cyclohexylethyl)-5-(1-methyl-1H-pyrazol-4-yl)nicotinamide]",> 1000
10,"Cn1cc(-c2cnc(N)c(C(=O)N[C@@H](CO)C3CCCCC3)c2)cn1 [Example 114, (R)-2-amino-N-(1-cyclohexyl-2-hydroxyethyl)-5-(1-methyl-1H-pyrazol-4-yl)nicotinamide]",> 1000
11,"Cn1cc(-c2cnc(N)c(C(=O)N[C@H](COCc3ccccc3)c3ccccc3)c2)cn1 [Example 115, (S)-2-amino-N-(2-(benzyloxy)-1-phenylethyl)-5-(1-methyl-1H-pyrazol-4-yl)nicotinamide]",> 1000
12,"Cn1cc(-c2cnc(N)c(C(=O)N[C@@H](COCc3ccccc3)c3ccccc3)c2)cn1 [Example 116, (R)-2-amino-N-(2-(benzyloxy)-1-phenylethyl)-5-(1-methyl-1H-pyrazol-4-yl)nicotinamide]",> 1000
13,"Cn1cc(-c2cnc(N)c(C(=O)N[C@H](COCc3ccccc3)Cc3ccccc3)c2)cn1 [Example 117, (S)-2-amino-N-(1-(benzyloxy)-3-phenylpropan-2-yl)-5-(1-methyl-1H-pyrazol-4-yl)nicotinamide]",> 1000
14,"Cn1cc(-c2cnc(N)c(C(=O)N[C@@H](COCc3ccccc3)Cc3ccccc3)c2)cn1 [Example 118, (R)-2-amino-N-(1-(benzyloxy)-3-phenylpropan-2-yl)-5-(1-methyl-1H-pyrazol-4-yl)nicotinamide]",> 1000
15,"C[C@H](COCC1CCC1)NC(=O)c1cc(-c2cnn(C)c2)cnc1N [Example 119, (R)-2-amino-N-(1-(cyclobutylmethoxy)propan-2-yl)-5-(1-methyl-1H-pyrazol-4-yl)nicotinamide]",> 1000
